Measured values published in US6812028B1, “Embryogenesis and plant regeneration from microspores” (University of Guelph, priority 1999, dated 2004).

How the values were obtained:
Type in all cases: cell-based
[1] = system: wheat isolated microspores cv Pavon 79; assay: Response of wheat isolated microspore cultures to AGP levels in MMS4 medium, with and without ovaries; conditions: MMS4, cv Pavon 79
Experimental: The effect of AGP on embryogenesis and plant regeneration was assessed in wheat microspores which were isolated from genotype Pavon 79 according to the method of the present invention. AGP levels of 0, 1, 5, and 10 mg/liter were tested. [table] […] Additionally, the data illustrates the presence of ovaries in co-culture enhanced embryogenesis and plant regeneration. Only at 10 mg/liter of AGP was significant embryogenesis observed in the absence of ovary co-culture. FIG. 5(a) illustrates the comparative response of wheat microspores to the presence or absence of wheat ovaries and 0 or 10 mg/L AGP. FIG. 6 illustrates the good embryo structure developed in wheat after 4 weeks on medium with ovaries and AGP.

[2] = system: spring wheat Pavon 79 isolated microspores; assay: AGP in isolated microspore culture, liquid medium versus filter paper, co-cultured with ovaries; conditions: for Total # Embryos/Plate: MMS4, with ovaries
Experimental: […] […] The results are similar for liquid and filter paper at the 3 compared concentrations, and 10 mg/liter of AGP gave the best response.

[3] = system: microspores of spring wheat genotypes Chris and Pavon 79; assay: AGP effect on embryo development from microspores, 0.8 ml drop on solid MMS4 with 3-4 ovaries; conditions: for avg. # embryos: genotype Chris, 5 reps; for # embryos: genotype Pavon 79, 3 reps
Experimental: The effect of AGP on microspore embryogenesis in the presence of ovary co-culture was assessed using Chris and Pavon 79 wheat genotypes. Media comprising 5 mg/liter and 10 mg/liter of AGP were compared with a control medium, on microspore embryogenesis in the presence of ovary co-culture. The results in Table 9 indicate that overall response of Chris to AGP is higher than the response of Pavon 79.

arabinogalactan protein [AGP]
# alive and dividing d 10 ([1]; AGP 1 mg/L, ovary +): 22605 | # alive not dividing d 10 ([1]; AGP 1 mg/L, ovary +): 2805 | # dead microspores d 10 ([1]; AGP 1 mg/L, ovary +): 47175 | # embryos 30 days ([1]; AGP 1 mg/L, ovary +): 2130 | # multicell burst d 10 ([1]; AGP 1 mg/L, ovary +): 1072 | # multicellular d 10 ([1]; AGP 1 mg/L, ovary +): 18500 | # alive and dividing d 10 ([1]; AGP 1 mg/L, ovary −): 22125 | # alive not dividing d 10 ([1]; AGP 1 mg/L, ovary −): 5650 | # dead microspores d 10 ([1]; AGP 1 mg/L, ovary −): 47558 | # embryos 30 days ([1]; AGP 1 mg/L, ovary −): 0 | # multicell burst d 10 ([1]; AGP 1 mg/L, ovary −): 400 | # multicellular d 10 ([1]; AGP 1 mg/L, ovary −): 13750 | # alive and dividing d 10 ([1]; AGP 5 mg/L, ovary +): 18272 | # alive not dividing d 10 ([1]; AGP 5 mg/L, ovary +): 7600 | # dead microspores d 10 ([1]; AGP 5 mg/L, ovary +): 30250 | # embryos 30 days ([1]; AGP 5 mg/L, ovary +): 3393 | # multicell burst d 10 ([1]; AGP 5 mg/L, ovary +): 7080 | # multicellular d 10 ([1]; AGP 5 mg/L, ovary +): 39078 | # alive and dividing d 10 ([1]; AGP 5 mg/L, ovary −): 26152 | # alive not dividing d 10 ([1]; AGP 5 mg/L, ovary −): 8275 | # dead microspores d 10 ([1]; AGP 5 mg/L, ovary −): 34500 | # embryos 30 days ([1]; AGP 5 mg/L, ovary −): 0 | # multicell burst d 10 ([1]; AGP 5 mg/L, ovary −): 742 | # multicellular d 10 ([1]; AGP 5 mg/L, ovary −): 28345 | # alive and dividing d 10 ([1]; AGP 10 mg/L, ovary +): 8500 | # alive not dividing d 10 ([1]; AGP 10 mg/L, ovary +): 0 | # dead microspores d 10 ([1]; AGP 10 mg/L, ovary +): 23550 | # embryos 30 days ([1]; AGP 10 mg/L, ovary +): 4250 | # multicell burst d 10 ([1]; AGP 10 mg/L, ovary +): 15452 | # multicellular d 10 ([1]; AGP 10 mg/L, ovary +): 68000 | # alive and dividing d 10 ([1]; AGP 10 mg/L, ovary −): 33275 | # alive not dividing d 10 ([1]; AGP 10 mg/L, ovary −): 6250 | # dead microspores d 10 ([1]; AGP 10 mg/L, ovary −): 24650 | # embryos 30 days ([1]; AGP 10 mg/L, ovary −): 50 | # multicell burst d 10 ([1]; AGP 10 mg/L, ovary −): 4620 | # multicellular d 10 ([1]; AGP 10 mg/L, ovary −): 41950 | embryo response in liquid and on filter paper ([2]; 10 mg/liter of AGP compared with 0 and 5 mg/liter): best response | Total # Embryos/Plate ([2]; AGP 1 mg/L, Liquid): 2130 | Total # Embryos/Plate ([2]; AGP 5 mg/L, Filter): 3080 | Total # Embryos/Plate ([2]; AGP 5 mg/L, Liquid): 3393 | Total # Embryos/Plate ([2]; AGP 10 mg/L, Filter): 4528 | Total # Embryos/Plate ([2]; AGP 10 mg/L, Liquid): 4250 | avg. # embryos ([3]; AGP 5 mg/L): 5618 | # embryos ([3]; AGP 5 mg/L): 4155 | avg. # embryos ([3]; AGP 10 mg/L): 9836 | # embryos ([3]; AGP 10 mg/L): 4681
